Data from paper PMC3793924, “Targeting Androgen Receptor/Src Complex Impairs the Aggressive Phenotype of Human Fibrosarcoma Cells” (PLoS ONE, 2013).

Tests used:
[1] = system: AR/Src complex; set-up: method as in PMID 17486077; settings: androgen-challenged prostate cancer LNCaP cells; cited from earlier work
Excerpt: Such a crosstalk has been previously analyzed in prostate cancer-derived LNCaP cells. […] The S1 peptide derives from the 377-386 amino-acid sequence of AR that is rich in prolines and is responsible for association of AR with t ...

[2] = system: HT1080 cell xenografts; test: HT1080 cell xenografts in nude male mice, tumor mass; type: in vivo; settings: i.p. on alternate days for 4 weeks, Casodex 0.1 μg/mice (4 µg/Kg), DHT 0,1 μg/mice (3 μg/Kg), six animals per group
Method: Figure 1 Casodex inhibits the EGF-triggered DNA synthesis in human fibrosarcoma HT1080 cells and reduces the growth of HT1080 xenografts. Human fibrosarcoma HT1080 cells were used. In A, quiescent cells on coverslips were left un-stimulated or stimulated for 18 h with the indicated compounds. […] After in vivo pulse with BrdU (100 μM; Sigma), BrdU incorporation was analyzed by IF and expressed as % of total nuclei. Several independent experiments were performed in duplicate and the results were derived from at least 400 scored cells for each coverslip. Mean and SEM are shown. n represents the number of experiments. (**) p value< 0,001. […] In B, xenografts were established in nude male mice as described in Methods. […] Volumes of HT1080 cell xenografts were measured at the indicated times in two dimensions by a caliper and expressed as tumor mass (mm^3). […]
HT1080 cells in 50% (v/v) Matrigel solution in phosphate-buffered saline (PBS; pH 7.4) were subcutaneously injected in the dorsal posterior region at 2.5 x 10^6 cells/male athymic mice (CD mice, Charles-River Italia) without hormone priming. […] The tumor volumes of HT1080 cell xenografts were measured at indicated intervals in two dimensions by a caliper and expressed as tumor mass (mm^3). This is calculated according to the formula: a^2 × b × 0.5, where a is the width and b is the length of the tumor. […]

[3] = Body weight of xenografted mice; type: in vivo; settings: Casodex i.p. on alternate days, 4 weeks; weighed twice weekly
Excerpt: HT1080 cells in 50% (v/v) Matrigel solution in phosphate-buffered saline (PBS; pH 7.4) were subcutaneously injected in the dorsal posterior region at 2.5 x 10^6 cells/male athymic mice (CD mice, Charles-River Italia) without hormone priming. Animals were randomly selected for the treatment with Casodex (dissolved in 0.1% ethanol) or DHT (dissolved in 0.1% ethanol) or control vehicle intra-peritoneally for a total of 4 weeks. Each group consisted of six animals. For the treatment of each animal (average weight: 25.08 g), 200 μl of 1 μM Casodex (about 0.1 µg) in 0.1% ethanol or 200 μl of 1 μM DHT (about 3 μg/Kg body weight) or the same amount of vehicle alone were administered to the mice on alternate days. The tumor volumes of HT1080 cell xenografts were measured at indicated intervals in two dimensions by a caliper and expressed as tumor mass (mm^3). This is calculated according to the formula: a^2 × b × 0.5, where a is the width and b is the length of the tumor. Food and water were given ad libitum. […] Animal experimentation was reviewed and approved by the Animal Research Ethical Committee of “Istituto per la Diagnosi e la Cura dei Tumori- Fondazione “G. Pascale” (Naples-ITALY).

Compound	Competition for AR association with the Src-SH3 domain [1]	Growth of HT1080 xenografts (tumor mass) [2]	Body weight versus control mice [3]
Ac-PPPHPHARIK-NH2 [S1 peptide]	competes for this association		
CC(O)(CS(=O)(=O)c1ccc(F)cc1)C(=O)Nc1ccc(C#N)c(C(F)(F)F)c1 (stereo not drawn) [Casodex]		tumor growth was drastically reduced	no difference in body weight
